≈ marks a conversion by molar mass, not a printed value.
Legend:
Assay type in all cases: functional
[1] = test system: Mycobacterium tuberculosis; experiment: Antimycobacterial activity against compound resistant Mycobacterium tuberculosis 16-6B harboring InhA ATC to AGC (150S)
[2] = test system: Mycobacterium tuberculosis; experiment: Antimycobacterial activity against compound resistant Mycobacterium tuberculosis 16-1B harboring InhA TCG to TTG (S186L)
[3] = test system: Mycobacterium tuberculosis; experiment: Antimycobacterial activity against compound resistant Mycobacterium tuberculosis 8-8B harboring InhA CTG to GTG (L197V) phenotype
[4] = test system: Mycobacterium tuberculosis; experiment: Antimycobacterial activity against compound resistant Mycobacterium tuberculosis 16-4B harboring InhA GCC to GAC (A211D) phenotype
[5] = test system: Mycobacterium tuberculosis; experiment: Selectivity ratio of MIC for compound resistant Mycobacterium tuberculosis 16-6B harboring InhA ATC to AGC (150S) phenotype to MIC for wild-type Mycobacterium tuberculosis H37Rv
[6] = test system: Mycobacterium tuberculosis; experiment: Selectivity ratio of MIC for compound resistant Mycobacterium tuberculosis 16-1B harboring InhA TCG to TTG (S186L) phenotype to MIC for wild-type Mycobacterium tuberculosis H37Rv
[7] = test system: Mycobacterium tuberculosis; experiment: Selectivity ratio of MIC for compound resistant Mycobacterium tuberculosis 8-8B harboring InhA CTG to GTG (L197V) phenotype to MIC for wild-type Mycobacterium tuberculosis H37Rv
[8] = test system: Mycobacterium tuberculosis; experiment: Selectivity ratio of MIC for compound resistant Mycobacterium tuberculosis 16-4B harboring InhA GCC to GAC (A211D) phenotype to MIC for wild-type Mycobacterium tuberculosis H37Rv

SMILES	MIC [1] [µg/mL]	MIC [2] [µg/mL]	MIC [3] [µg/mL]	MIC [4] [µg/mL]	Selectivity ratio [5]	Selectivity ratio [6]	Selectivity ratio [7]	Selectivity ratio [8]
Cc1cccc(-c2c(O)c3scc(Br)c3[nH]c2=O)c1	16 (≈ 47.6 µM)	16 (≈ 47.6 µM)	32 (≈ 95.2 µM)	>128	<=16	<=16	<=16	<=16
NNC(=O)c1ccncc1 [ISONIAZID]	0.063 (≈ 0.459 µM)	0.063 (≈ 0.459 µM)	0.063 (≈ 0.459 µM)	0.063 (≈ 0.459 µM)				
CO[C@H]1/C=C/O[C@@]2(C)Oc3c(C)c(O)c4c(O)c(c(/C=N/N5CCN(C)CC5)c(O)c4c3C2=O)NC(=O)/C(C)=C\C=C\[C@H](C)[C@H](O)[C@@H](C)[C@@H](O)[C@@H](C)[C@H](OC(C)=O)[C@@H]1C [RIFAMPIN]	0.063 (≈ 0.0766 µM)	0.063 (≈ 0.0766 µM)	0.063 (≈ 0.0766 µM)	64 (≈ 77.8 µM)				
